Non-standard residues stand in square brackets, D forms with d. Residues, ends and D or L forms follow the SMILES beside them. *: point of attachment. Asu = N[C@@H](CCCCCC(=O)O)C(=O)O; NHOH = ON*
Legend:
[1] = target: T1, Histone deacetylase 1 (Homo sapiens, UniProt Q13547); assay: Binding affinity to HDAC1 (unknown origin) assessed as inhibition constant
[2] = species on record: Homo sapiens; assay: Selectivity ratio of Ki for human HDAC3 using Acetyl-Lys(Ac)-AMC as substrate to Ki for HDAC1 using Acetyl-Lys(Ac)-AMC as substrate
[3] = target: T2, Histone deacetylase 3 (Homo sapiens, UniProt O15379); assay: Binding affinity to HDAC3 (unknown origin) assessed as inhibition constant
[4] = target: T2, Histone deacetylase 3; assay: Binding affinity to human HDAC3 using Acetyl-Lys(Ac)-AMC as substrate assessed as binding constant (k-1)
[5] = target: T1, Histone deacetylase 1; assay: Binding affinity to HDAC1 (unknown origin) assessed as binding constant (Kon)
[6] = target: T1, Histone deacetylase 1; assay: Binding affinity to HDAC1 (unknown origin) assessed as dissociation constant (Koff)
[7] = target: T2, Histone deacetylase 3
[8] = Half life in C57BL/6 mouse brain at 45 mg/kg, ip; type: ADME, organism-based
[9] = target: T3, Histone deacetylase 2 (Homo sapiens, UniProt Q92769)
[10] = in vivo; conditions: C57BL/6, mouse, brain, ip, 25 mg/kg
Description: Half life in C57BL/6 mouse brain at 25 mg/kg, ip

[11] = target: T1, Histone deacetylase 1
[12] = target: T1, Histone deacetylase 1; conditions: HEK293T
[13] = target: T3, Histone deacetylase 2; remark: listed apart in the source
Description: Binding affinity to HDAC2 (unknown origin) using Ac-LGKac-AMC as substrate assessed as half life

[14] = target: T2, Histone deacetylase 3; remark: listed apart in the source
Description: Binding affinity to HDAC3 (unknown origin) using Ac-LGKac-AMC as substrate assessed as half life

[15] = target: T4, Protein deacetylase HDAC6 (Homo sapiens, UniProt Q9UBN7); assay: Binding affinity to recombinant human HDAC6 using Ac-Leu-Gly-Lys(Ac)-AMC as substrate measured after 60 mins assessed as inhibition constant (ki,1) by fluorescence based assay
T4 sequence (Q9UBN7 whole entry): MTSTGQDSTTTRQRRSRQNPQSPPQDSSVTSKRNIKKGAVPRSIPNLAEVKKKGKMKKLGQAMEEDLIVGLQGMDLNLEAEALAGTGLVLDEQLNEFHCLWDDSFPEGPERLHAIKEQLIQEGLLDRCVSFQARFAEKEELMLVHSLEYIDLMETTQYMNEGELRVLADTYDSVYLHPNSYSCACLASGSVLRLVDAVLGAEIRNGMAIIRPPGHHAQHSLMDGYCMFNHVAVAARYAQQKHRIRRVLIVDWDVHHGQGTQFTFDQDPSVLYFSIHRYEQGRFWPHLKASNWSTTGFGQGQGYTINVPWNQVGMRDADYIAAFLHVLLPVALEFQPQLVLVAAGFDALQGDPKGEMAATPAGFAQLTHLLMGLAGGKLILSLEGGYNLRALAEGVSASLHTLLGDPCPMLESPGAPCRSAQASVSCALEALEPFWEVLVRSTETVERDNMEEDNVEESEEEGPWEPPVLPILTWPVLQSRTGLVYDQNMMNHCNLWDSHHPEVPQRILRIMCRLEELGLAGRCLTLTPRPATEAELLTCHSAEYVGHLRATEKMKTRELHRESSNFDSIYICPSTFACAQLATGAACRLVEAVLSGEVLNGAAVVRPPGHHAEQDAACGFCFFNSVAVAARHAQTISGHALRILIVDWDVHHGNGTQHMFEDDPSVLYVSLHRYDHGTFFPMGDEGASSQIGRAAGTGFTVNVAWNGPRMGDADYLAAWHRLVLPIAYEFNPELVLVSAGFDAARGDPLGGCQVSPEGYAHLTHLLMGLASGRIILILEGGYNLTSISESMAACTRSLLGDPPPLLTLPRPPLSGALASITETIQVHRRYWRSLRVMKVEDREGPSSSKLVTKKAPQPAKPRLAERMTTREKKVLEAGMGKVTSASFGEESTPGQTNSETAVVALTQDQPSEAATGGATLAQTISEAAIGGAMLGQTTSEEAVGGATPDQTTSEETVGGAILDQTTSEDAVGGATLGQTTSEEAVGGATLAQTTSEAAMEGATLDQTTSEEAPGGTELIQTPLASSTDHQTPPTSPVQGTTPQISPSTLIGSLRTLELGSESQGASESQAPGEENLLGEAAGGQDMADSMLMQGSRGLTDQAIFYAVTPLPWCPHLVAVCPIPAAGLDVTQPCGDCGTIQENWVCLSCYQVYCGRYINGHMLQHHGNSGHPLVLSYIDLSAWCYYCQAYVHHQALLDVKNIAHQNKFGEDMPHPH

[16] = target: T2, Histone deacetylase 3; assay: Binding affinity to HDAC3 (unknown origin) assessed as inhibition constant(ki,1)
[17] = target: T5, Protein deacetylase HDAC6 (Homo sapiens) (UniProt Q9UBN7); assay: Binding affinity to recombinant human HDAC6 using Ac-Leu-Gly-Lys(Ac)-AMC as substrate measured after 60 mins assessed as binding constant (k-2) by fluorescence based assay
T5 sequence (whole entry): T4 sequence (Q9UBN7 whole entry)

[18] = target: T2, Histone deacetylase 3; assay: Binding affinity to HDAC3 (unknown origin) assessed as binding constant(k-2)
[19] = target: T5, Protein deacetylase HDAC6 (Homo sapiens); assay: Binding affinity to recombinant human HDAC6 using Ac-Leu-Gly-Lys(Ac)-AMC as substrate assessed as residence time
[20] = target: T2, Histone deacetylase 3; assay: Binding affinity to HDAC3 (unknown origin) assessed as residence time
[21] = target: T5, Protein deacetylase HDAC6 (Homo sapiens); assay: Binding affinity to recombinant human HDAC6 using Ac-Leu-Gly-Lys(Ac)-AMC as substrate measured after 60 mins assessed as binding constant (k2) by fluorescence based assay
[22] = target: T2, Histone deacetylase 3; assay: Binding affinity to HDAC3 (unknown origin) assessed as binding constant(k2)
[23] = target: T4, Protein deacetylase HDAC6; assay: Binding affinity to recombinant human HDAC6 using Ac-Leu-Gly-Lys(Ac)-AMC as substrate measured after 60 mins assessed as inhibition constant by fluorescence based assay
[24] = target: T3, Histone deacetylase 2; remark: listed apart in the source
Description: Binding affinity to HDAC2 (unknown origin) using Ac-LGKac-AMC as substrate assessed as residence time

[25] = target: T1, Histone deacetylase 1; remark: listed apart in the source
Description: Binding affinity to HDAC1 (unknown origin) using Ac-LGKac-AMC as substrate assessed as half life

[26] = target: T1, Histone deacetylase 1; assay: Binding affinity to human HDAC1 using AcLGK (Ac) -AMC as substrate assessed as residence time
[27] = target: T6, Histone deacetylase 8 (Homo sapiens, UniProt Q9BY41); assay: Binding affinity to HDAC8 (unknown origin) assessed as inhibition constant
T6 sequence (Q9BY41 whole entry): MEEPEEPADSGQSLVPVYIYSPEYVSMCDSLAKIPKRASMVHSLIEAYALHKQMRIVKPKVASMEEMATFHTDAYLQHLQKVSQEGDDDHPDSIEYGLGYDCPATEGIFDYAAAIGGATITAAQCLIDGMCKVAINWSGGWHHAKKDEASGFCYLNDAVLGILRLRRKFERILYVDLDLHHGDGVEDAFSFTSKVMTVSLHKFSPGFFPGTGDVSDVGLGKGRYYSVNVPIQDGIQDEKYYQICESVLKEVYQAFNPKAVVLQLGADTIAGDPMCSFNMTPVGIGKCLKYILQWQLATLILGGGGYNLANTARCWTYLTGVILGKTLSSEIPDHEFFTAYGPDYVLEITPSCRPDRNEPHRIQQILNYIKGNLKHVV

[28] = target: T3, Histone deacetylase 2; assay: Binding affinity to human HDAC2 assessed as residence time
[29] = target: T6, Histone deacetylase 8; assay: Binding affinity to HDAC8 (unknown origin) assessed as inhibition constant(ki,1)
[30] = target: T2, Histone deacetylase 3; assay: Binding affinity to human HDAC3 assessed as residence time
[31] = target: T2, Histone deacetylase 3; assay: Inhibition of HDAC3 (unknown origin) measured after 1 hrs by fluorescence based assay
[32] = target: T1, Histone deacetylase 1; assay: Inhibition of HDAC1 (unknown origin) measured after 1 hrs by fluorescence based assay
[33] = target: T3, Histone deacetylase 2; assay: Inhibition of HDAC2 (unknown origin) measured after 1 hrs by fluorescence based assay
[34] = target: T2, Histone deacetylase 3; assay: Inhibition of HDAC3 (unknown origin) measured after 24 hrs by fluorescence based assay
[35] = target: T2, Histone deacetylase 3; assay: Binding affinity to human HDAC3 assessed as binding rate constant (Kon)
[36] = target: T3, Histone deacetylase 2; assay: Binding affinity to human HDAC2 assessed as half life
[37] = species on record: Homo sapiens; assay: Selectivity index, ratio of IC50 for Inhibition of human HDAC3 to Inhibition of human IC50 for HDAC2
[38] = target: T1, Histone deacetylase 1; assay: Binding affinity to human HDAC1 assessed as half life
[39] = target: T2, Histone deacetylase 3; assay: Binding affinity to human HDAC3 assessed as half life
[40] = species on record: Homo sapiens; assay: Selectivity index, ratio of IC50 for Inhibition of human HDAC3 to IC50 for Inhibition of human HDAC1
[41] = target: T2, Histone deacetylase 3; assay: Binding affinity to human HDAC3 assessed as dissociation rate constant (Koff)
[42] = target: T1, Histone deacetylase 1; remark: listed apart in the source
[43] = target: T1, Histone deacetylase 1; remark: listed apart in the source
[44] = target: T1, Histone deacetylase 1; assay: Inhibition of HDAC1 (unknown origin) measured after 24 hrs by fluorescence based assay
[45] = target: T3, Histone deacetylase 2; assay: Inhibition of HDAC2 (unknown origin) measured after 24 hrs by fluorescence based assay

T2 sequence (O15379 whole entry): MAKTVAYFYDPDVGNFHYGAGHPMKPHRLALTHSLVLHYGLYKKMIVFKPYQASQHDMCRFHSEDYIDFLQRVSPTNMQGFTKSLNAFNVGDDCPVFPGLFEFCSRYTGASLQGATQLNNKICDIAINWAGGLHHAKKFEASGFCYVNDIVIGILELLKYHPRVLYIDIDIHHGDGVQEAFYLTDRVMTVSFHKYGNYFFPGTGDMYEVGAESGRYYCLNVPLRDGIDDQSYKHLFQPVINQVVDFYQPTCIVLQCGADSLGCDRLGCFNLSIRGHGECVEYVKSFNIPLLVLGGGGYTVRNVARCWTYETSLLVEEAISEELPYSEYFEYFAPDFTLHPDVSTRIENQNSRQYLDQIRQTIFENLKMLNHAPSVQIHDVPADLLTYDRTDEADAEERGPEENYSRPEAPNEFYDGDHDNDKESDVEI
T3 sequence (Q92769 whole entry): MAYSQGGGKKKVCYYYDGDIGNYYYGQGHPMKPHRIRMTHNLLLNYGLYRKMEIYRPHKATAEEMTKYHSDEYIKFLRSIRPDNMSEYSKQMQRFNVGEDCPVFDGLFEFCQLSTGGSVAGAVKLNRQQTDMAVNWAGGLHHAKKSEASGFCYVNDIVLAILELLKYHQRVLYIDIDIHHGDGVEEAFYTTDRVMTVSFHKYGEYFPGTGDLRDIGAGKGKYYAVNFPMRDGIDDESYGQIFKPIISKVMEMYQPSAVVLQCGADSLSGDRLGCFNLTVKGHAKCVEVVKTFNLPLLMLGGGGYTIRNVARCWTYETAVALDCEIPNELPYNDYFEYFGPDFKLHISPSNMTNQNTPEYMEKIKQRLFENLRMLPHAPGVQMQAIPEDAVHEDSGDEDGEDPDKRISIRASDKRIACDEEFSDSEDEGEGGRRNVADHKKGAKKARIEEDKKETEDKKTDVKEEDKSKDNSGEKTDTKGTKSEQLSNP
T1 sequence (Q13547 whole entry): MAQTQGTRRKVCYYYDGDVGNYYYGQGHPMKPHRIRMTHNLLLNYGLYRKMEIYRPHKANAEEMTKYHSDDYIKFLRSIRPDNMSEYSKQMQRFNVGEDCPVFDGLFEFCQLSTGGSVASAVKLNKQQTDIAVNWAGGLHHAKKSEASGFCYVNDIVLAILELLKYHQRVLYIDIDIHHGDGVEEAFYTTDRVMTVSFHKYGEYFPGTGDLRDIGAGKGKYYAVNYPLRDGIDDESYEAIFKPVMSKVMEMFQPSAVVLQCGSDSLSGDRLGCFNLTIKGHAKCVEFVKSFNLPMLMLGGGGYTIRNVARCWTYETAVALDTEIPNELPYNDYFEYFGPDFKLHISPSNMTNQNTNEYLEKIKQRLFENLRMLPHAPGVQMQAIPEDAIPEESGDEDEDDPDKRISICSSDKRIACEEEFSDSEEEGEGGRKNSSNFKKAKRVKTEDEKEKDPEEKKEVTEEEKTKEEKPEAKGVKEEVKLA

Compound: Nc1ccc(-c2ccccc2)cc1NC(=O)CCCCCC(=O)Nc1ccccc1
- Ki [1]: 7 nM
- Ratio Ki [2]: 350
- Ki [3]: 2500 nM
- K [4]: 0.002 min⁻¹

Compound: Nc1ccc(-c2ccncc2)cc1NC(=O)N1CCCC1
- K [5]: 3080 M⁻¹ s⁻¹
- K [6]: 0.011 min⁻¹

Compound: CC(=O)Nc1ccc(C(=O)Nc2cc(-c3cccs3)ccc2N)cc1
- T1/2 [7]: 20 h
- half-life [8]: 6.44 h
- T1/2 [9]: > 80 h

Compound: O=C(CCCCCCC(=O)Nc1ccccc1)NO [VORINOSTAT]
- half-life [10]: 0.44 h
- T1/2 [11]: < 4 min
- T1/2 [7]: < 0.0667 h

Compound: Cc1ccc(NC(=O)CCCCCC(=O)Nc2ccccc2N)cc1
- T1/2 [12]: 1.5 h

Compound: Cc1[nH]c2ccccc2c1CCNCc1ccc(/C=C/C(=O)NO)cc1
- T1/2 [13]: > 1670 h
- T1/2 [14]: > 1.05 h

Compound: O=C(CCCCC[C@@H]1NC(=O)[C@H]2CCCN2C(=O)[C@H](Cc2ccccc2)NC(=O)[C@H](Cc2ccccc2)NC1=O)NO (cyclo([Asu](NHOH)FF[dP]))
- Ki [15]: 34 nM
- Ki [16]: 1.4 nM
- K [17]: 0.006 min⁻¹
- K [18]: 0.004 min⁻¹
- Ki [3]: 0.2 nM
- TIME [19]: 2.92 h
- TIME [20]: 4.17 h
- K [21]: 0.148 min⁻¹
- K [22]: 0.26 min⁻¹
- Ki [23]: ~1.2 nM

Compound: C[C@@H]1NC(=O)[C@H]2CCCN2C(=O)[C@H](CCCCCC(=O)[C@@H]2CO2)NC(=O)[C@@H](C)NC1=O
- K [18]: 0.012 min⁻¹
- TIME [20]: 1.39 h
- K [22]: 0.12 min⁻¹

Compound: CC(=O)Nc1ccc(C(=O)Nc2ccccc2N)cc1
- T1/2 [24]: 3.33 h
- T1/2 [13]: > 2.32 h
- T1/2 [14]: > 0.833 h
- T1/2 [25]: > 23.1 h

Compound: Nc1ccc(-c2ccco2)cc1NC(=O)c1ccc(-c2cn(CS(=O)(=O)c3ccccc3)nn2)cc1
- TIME [26]: 2.42 h

Compound: O=C(CCCCCCC(=O)C(F)(F)F)Nc1ccccc1
- K [18]: 5 10^-3/min
- Ki [27]: ~33 nM
- TIME [28]: 2.08 h
- Ki [29]: 7300 nM
- TIME [30]: 3.33 h
- K [22]: 0.24 min⁻¹

Compound: O=C(/C=C(\CO)c1ccccc1)c1ccccc1
- IC50 [31]: ~50000 nM
- IC50 [32]: 3680 nM
- IC50 [33]: 9190 nM
- IC50 [34]: ~50000 nM

Compound: CC(=O)Nc1ccc(C(=O)Nc2ccc(F)cc2N)cc1
- K [35]: 5000 M⁻¹ s⁻¹
- T1/2 [36]: 0.217 h
- Ratio IC50 [37]: > 17
- T1/2 [38]: 0.0417 h
- TIME [28]: 0.3 h
- T1/2 [39]: 1.32 h
- TIME [30]: 1.9 h
- Ratio IC50 [40]: > 17
- K [41]: 0.009 min⁻¹

Compound: C/C=C1\NC(=O)[C@H]2CSSCC/C=C/[C@H](CC(=O)N[C@H](C(C)C)C(=O)N2)OC(=O)[C@H](C(C)C)NC1=O [ROMIDEPSIN]
- Ki [42]: ~0.02 nM
- Ki [43]: 0.88 nM
- T1/2 [14]: > 1670 h
- T1/2 [25]: > 0.433 h

Compound: NC/C(=C\C(=O)c1ccccc1)c1ccccc1
- IC50 [31]: > 50000 nM
- IC50 [44]: 8650 nM
- IC50 [32]: 5960 nM
- IC50 [33]: 19600 nM
- IC50 [34]: > 50000 nM
- IC50 [45]: 26400 nM

Compound: CC(=O)Nc1ccc(C(=O)Nc2cc(-c3ccncc3)ccc2N)cc1
- K [35]: 16.7 M⁻¹ s⁻¹
- T1/2 [36]: 30 h
- Ratio IC50 [37]: 100
- T1/2 [38]: 7.17 h
- TIME [28]: 41.7 h
- T1/2 [39]: 11.5 h
- TIME [30]: 10.4 h
- Ratio IC50 [40]: 1040
- K [41]: 0.002 min⁻¹

Compound: CCC(=O)CCCCC[C@@H]1NC(=O)[C@H]2CCCCN2C(=O)[C@H]([C@@H](C)CC)NC(=O)[C@H](Cc2c[nH]c3ccccc23)NC1=O
- Ki [1]: 400 nM
- Ki [3]: 600 nM
